# Patent US9707228B2, “Dry powder formulation” (Agency for Science, Technology and Research, priority 2012, dated 2017)
# Counter-ions that a name gives are not always drawn.
# System: Pseudomonas aeruginosa
# Assay: MIC determination via the microdilution method
# Assay type: cell-based
# Conditions: read-out: minimum inhibitory concentration (MIC)
# Description: Ciprofloxacin hydrochloride and gatifloxacin hydrochloride were supplied by Junda Pharmaceutical Co. Ltd (of Guangzhou of China). The aqueous solution of ciprofloxacin hydrochloride and gatifloxacin hydrochloride (at a weight ratio of 1:2.5) was obtained by dissolving both drugs together in water. The weight ratio of the individual quinolone in the solution (as well as in the resultant spray-dried particle) was based on the quinolone's minimum inhibitory concentration (MIC). The MIC was experimentally determined and a ratio of the quinolones was obtained as a guideline in developing the final workable proportion. The quinolones' MIC values were important as they provided preliminary guidance on the required therapeutic dose of each quinolone in the binary (SD-CIP/GAT) powder formulation (i.e. combination ratios). The MICs of the various quinolones for the bacteria Pseudomonas aeruginosa different bacteria were determined via the microdilution method and used to determine the desired binary drug proportions. For the bacteria Pseudomonas aeruginosa, since MICCIP:MICGAT is 1:2 (actual values are 0.25 μg/ml:0.5 μg/ml), the binary formulation was composed of CIP:GAT in the ratio of 1:2. […]
row,MIC,SMILES
1,0.25 µg/mL,"O=C(O)c1cn(C2CC2)c2cc(N3CCNCC3)c(F)cc2c1=O [CIP, ciprofloxacin hydrochloride]"
2,0.5 µg/mL,"COc1c(N2CCNC(C)C2)c(F)cc2c(=O)c(C(=O)O)cn(C3CC3)c12 (centres unmarked) [GAT, gatifloxacin hydrochloride]"
